In the supplement of paper PMC13380429:

What was measured:
Settings in all cases: 72 h
Caco-2 [1] = test: cell viability relative to DMSO; higher = less toxic
Calu-3 [2] = test: as above
HepG2 [3] = test: as above
U2OS [4] = test: as above
Vero E6 [5] = test: as above
Caco-2 [6] = test: relative viability EC50 (midpoint between 100% and the lowest measured viability); higher = less toxic
Calu-3 [7] = test: as above
HepG2 [8] = test: as above
U2OS [9] = test: as above
Vero E6 [10] = test: as above
Caco-2 [11] = test: drug sensitivity score (DSS) for viability; higher = more toxic; extreme values may be limits of the assay
Calu-3 [12] = test: as above
HepG2 [13] = test: as above
U2OS [14] = test: as above
Vero E6 [15] = test: as above

SMILES	cell viability (Caco-2 [1]; 1 nM) [%]	cell viability (Caco-2 [1]; 10 nM) [%]	cell viability (Caco-2 [1]; 100 nM) [%]	cell viability (Caco-2 [1]; 1000 nM) [%]	cell viability (Caco-2 [1]; 10000 nM) [%]	cell viability (Calu-3 [2]; 1 nM) [%]	cell viability (Calu-3 [2]; 10 nM) [%]	cell viability (Calu-3 [2]; 100 nM) [%]	cell viability (Calu-3 [2]; 1000 nM) [%]	cell viability (Calu-3 [2]; 10000 nM) [%]	cell viability (HepG2 [3]; 1 nM) [%]	cell viability (HepG2 [3]; 10 nM) [%]	cell viability (HepG2 [3]; 100 nM) [%]	cell viability (HepG2 [3]; 1000 nM) [%]	cell viability (HepG2 [3]; 10000 nM) [%]	cell viability (U2OS [4]; 1 nM) [%]	cell viability (U2OS [4]; 10 nM) [%]	cell viability (U2OS [4]; 100 nM) [%]	cell viability (U2OS [4]; 1000 nM) [%]	cell viability (U2OS [4]; 10000 nM) [%]	cell viability (Vero E6 [5]; 1 nM) [%]	cell viability (Vero E6 [5]; 10 nM) [%]	cell viability (Vero E6 [5]; 100 nM) [%]	cell viability (Vero E6 [5]; 1000 nM) [%]	cell viability (Vero E6 [5]; 10000 nM) [%]	relative viability EC50 (Caco-2 [6]) [µM]	relative viability EC50 (Calu-3 [7]) [µM]	relative viability EC50 (HepG2 [8]) [µM]	relative viability EC50 (U2OS [9]) [µM]	relative viability EC50 (Vero E6 [10]) [µM]	drug sensitivity score (Caco-2 [11])	drug sensitivity score (Calu-3 [12])	drug sensitivity score (HepG2 [13])	drug sensitivity score (U2OS [14])	drug sensitivity score (Vero E6 [15])
CNC(=S)C1(c2ccccn2)CCCS1 (stereo not given) [picartamide]	94.1	96.8	92.9	95.1	99.4	96.9	93	102	106	106	98.3	93.6	103	99.6	97.8	99.5	104	96.2	99.4	106	103	96.5	106	101	93.7	> 10	> 10	> 10	> 10	> 10	0	0	0	0	0
Cc1cccc(C)c1NC(=O)CC12CCCN1CCC2 [pilsicainide]	104	83.8	95	94.7	91.9	106	94.6	87.8	102	94.7	86.5	102	90.2	99.4	91.1	96.3	92.8	99.4	94.7	102	102	98.7	99.9	100	100	> 10	> 10	> 10	> 10	> 10	0	0	0	0	0
CC(C)(C)C(=O)OCOC(=O)[C@@H]1N2C(=O)[C@@H](/N=C/N3CCCCCC3)[C@H]2SC1(C)C [pivmecillinam]	88.8	92.9	93.3	90.7	97.2	90.9	93.1	97.9	94.9	112	94.7	92.7	96.1	95.5	91.9	102	99.8	103	98.9	104	106	102	96.6	104	92.8	> 10	> 10	> 10	> 10	> 10	0	0	0	0	0
CCC/N=C1\S/C(=C\c2ccc(OC[C@H](O)CO)c(Cl)c2)C(=O)N1c1ccccc1C [ponesimod]	91.2	100	95.6	99	79.6	90.5	103	105	105	108	95.8	89.6	99.5	102	91.6	98.5	100	100	101	98.4	100	94	91.5	91.5	93.7	> 10	> 10	> 10	> 10	> 10	0.7	0	0	0	0
CCC1(c2ccccc2)C(=O)NCNC1=O [primidone]	93.1	100	84.5	101	115	102	94.8	105	94.1	114	112	78.9	89.4	84.9	96.3	102	98.3	101	102	107	94.5	95.1	92	92.2	95.3	> 10	> 10	> 10	> 10	> 10	0	0	0.2	0	0
C[C@H](NCc1ccc(OCc2ccccc2F)cc1)C(N)=O [priralfinamide]	97.8	104	91.6	95	91.2	103	95.2	105	91.5	99.5	98	87.3	98.5	97.4	93.6	99.2	102	96.5	99.6	97.6	99.5	95.3	99.4	92.3	91.7	> 10	> 10	> 10	> 10	> 10	0	0	0	0	0
CN(C)CCCN1c2ccccc2Sc2ccccc21 [promazine]	95.5	98.3	93.6	96.1	102	93.7	102	95.2	95.6	101	102	89.6	102	93.5	87.6	98.7	102	96.4	96.3	99.5	102	100	95.1	97.2	96	> 10	> 10	> 10	> 10	> 10	0	0	0.1	0	0
O=C1C[C@@]2(C(=O)N1)C(=O)N(Cc1ccc(Br)cc1F)C(=O)c1cccn12 [ranirestat]	99.6	98.4	101	98.6	103	92.6	104	104	102	95.8	102	106	90.6	99.2	104	96.8	97.1	103	96.8	100	94	96.7	90.8	92.2	100	> 10	> 10	> 10	> 10	> 10	0	0	0	0	0
C=CCNc1c(O)cc2c(O)c1C[C@@H](C)C[C@H](OC)[C@H](O)[C@@H](C)/C=C(\C)[C@H](OC(N)=O)[C@@H](OC)/C=C\C=C(/C)C(=O)N2 [retaspimycin]	92.1	101	94	60	27.8	94.2	89.1	84.5	46.2	41.2	97.3	95.6	6.2	1.8	2.9	96.5	99	88	5.2	2.1	99.3	100	104	53.3	25.5	0.819	0.199	0.0315	0.232	0.815	8.8	11.5	30	19.2	9.7
C[C@H](O)[C@H](O)[C@H]1CNc2nc(N)[nH]c(=O)c2N1 [sapropterin]	109	114	90.3	107	106	94.9	97	98.6	106	99.4	98.6	87.3	94.2	102	86.1	99.9	95.4	101	91.3	99.9	97.1	102	99.6	96.9	92.6	> 10	> 10	> 10	> 10	> 10	0	0	0.1	0	0
COc1cc2c(c(OC)c1OC)-c1c(cc3c(c1OC)OCO3)C[C@H](C)[C@@](C)(O)C2 [schisandrol-B]	104	92	95.9	95.9	97.4	100	92.8	101	105	96.5	100	114	93.3	98.4	100	101	99.9	105	103	97.9	102	102	102	100	97.8	> 10	> 10	> 10	> 10	> 10	0	0	0	0	0
C[N+]1([O-])[C@@H]2C[C@@H](OC(=O)[C@H](CO)c3ccccc3)C[C@H]1[C@@H]1O[C@@H]12 (stereo not given in full) [scopolamine-N-oxide]	88.4	97.6	85.9	96.6	102	99.7	95.4	100	102	94.5	105	93.1	107	107	108	93.9	96.5	93.9	98.5	104	93.1	83.9	104	97.4	107	> 10	> 10	> 10	> 10	> 10	0	0	0	0	0
COC1=C[C@@H]2[C@@H]3Cc4ccc(OC)c(O)c4[C@]2(CCN3C)CC1=O [sinomenine]	107	96.9	90.5	98.8	104	100	95.4	100	92.4	95.8	109	104	99.2	88.5	96.3	94.1	98.5	98.8	104	94.3	105	97.7	103	97	105	> 10	> 10	> 10	> 10	> 10	0	0	0.4	0	0
